Legend:
[1] = target: GlucDH_E170K_K252L (GlucDH-mut2) (Bacillus subtilis, UniProt P12310, A229V/A236S/E170K/Q252L); assay: Residual activity of GlucDH mutant 2 after storage with coenzyme; type: biochemical; details: 24 weeks at 32° C. and 85% relative air humidity
Method: carbaNAD (FIG. 1A) or NAD were added to the glucose-specific GlucDH. These formulations were each applied to Pokalon foils (Lonza) and, after drying, stored under warm and humid conditions (32° C., 85% relative air humidity). Subsequently, the reaction kinetics and the function curve were determined at regular intervals. In parallel at each of the measurement times a cNAD/NAD analysis and a determination of the residual activity of the enzyme were carried out.
If a mutant is used instead of the wild-type enzyme (from Bacillus subtilis), it is possible to further increase the residual activity of GlucDH. After 24 weeks storage at 32° C. and 85% relative air humidity in the presence of cNAD, the residual activity of a mutant GlucDH_E96G_E170K with the amino acid substitutions glutamic acid→glycine at position 96 and glutamic acid→lysine at position 170 (GlucDH-mut1) of the wild-type enzyme is about 70%, whereas the residual activity of a mutant GlucDH_E170K_K252L with the amino acid substitutions glutamic acid→lysine at position 170 and lysine→leucine at position 252 (GlucDH-mut2) is about 50% (FIG. 8).

diaphorase [2] = assay: Enzyme activity in test strips stored up to 18 weeks (Table 7); type: biochemical
Method: (§1) In order to evaluate the stabilization of glucose dehydrogenase and diaphorase by carbaNAD, a number of test strips were prepared in analogy to Example 5.
(§2) The test strips were stored over a period of 18 weeks at temperatures of 5° C. (KS, refrigerator), 25° C. (RT), 30° C. (GT), 35° C. (DT) and 45° C. (HT), and the enzyme activity in the test strips was determined at the start of storage (0 weeks), after 6 weeks, after 9 weeks, after 12 weeks and after 18 weeks. The results are shown in Table 6 (glucose dehydrogenase) and in Table 7 (diaphorase).

D-lactate dehydrogenase = D-lactate dehydrogenase (Lactobacillus delbrueckii subsp. bulgaricus, UniProt P26297); assay: DSC of coenzyme binding; details: 3.8 mM ligand; 0.1M Tris buffer, pH 7.5
[3] = target: T1, alcohol dehydrogenase (ADH) (Saccharomyces cerevisiae, UniProt P00330); assay: Storage of alcohol dehydrogenase detection solution with NAD or cNAD (Tables 1 and 2); type: biochemical, yeast
T1 sequence (P00330 1-348): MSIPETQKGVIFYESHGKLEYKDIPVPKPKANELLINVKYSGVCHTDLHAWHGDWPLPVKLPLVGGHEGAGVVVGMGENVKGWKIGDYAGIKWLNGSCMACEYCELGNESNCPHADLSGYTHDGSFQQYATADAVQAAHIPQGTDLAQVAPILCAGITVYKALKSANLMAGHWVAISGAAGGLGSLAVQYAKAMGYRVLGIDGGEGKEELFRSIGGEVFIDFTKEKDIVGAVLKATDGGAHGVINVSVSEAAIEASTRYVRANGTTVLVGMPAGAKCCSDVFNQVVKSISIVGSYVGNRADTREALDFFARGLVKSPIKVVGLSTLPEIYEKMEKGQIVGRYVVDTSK
Method: cNAD or NAD was added to a detection solution containing alcohol dehydrogenase. These mixtures were stored at 2-8° C. and at 35° C. Subsequently, the stability of alcohol dehydrogenase (ADH) was checked at regular intervals and the residual activity of the enzyme was determined.
If alcohol dehydrogenase is stored together with native NAD or with cNAD for several months at 2-8° C. in a refrigerator, then one observes in the case of […] a considerable decrease in enzyme activity over the entire storage period. Whereas the difference after 2 weeks storage is still slight, there is an approximately 20% higher residual activity of alcohol dehydrogenase after 12 months storage in the presence of 16 mM cNAD compared to a corresponding solution containing 16 mM NAD as the coenzyme.
Accordingly, the residual activity of alcohol dehydrogenase can be increased somewhat in samples that have been stored for 2 weeks at 2-8° C. by increasing the concentration of cNAD.

malate dehydrogenase = details: 3.8 mM ligand; 0.5M carbonate buffer, pH 10.0
diaphorase [4] = assay: Diaphorase activity extracted from triglyceride test strips after storage; type: biochemical; details: triglyceride test strips stored at 32° C. and 30-70% relative air humidity
Method: A composition which, among others, contained glycerol dehydrogenase, carbaNAD, diaphorase and a tetrazolium salt was used to determine triglycerides. Test strips were obtained by applying the formulation mentioned in Table 4 to a polycarbonate foil by means of a doctor blade (layer height 80 μm) and subsequent drying, and they were stored at 32° C. and 30-70% relative air humidity.

[5] = target: Glucose dehydrogenase mutant2 (Bacillus subtilis, UniProt P12310, A229V/A236S/E170K/Q252L); assay: Enzyme activity in test strips stored up to 18 weeks (Table 6); type: biochemical
Method: as §1, §2

[6] = 16 mmol/l coenzyme, initial value

NC(=O)c1ccc[n+]([C@@H]2C[C@H](COP(=O)([O-])OP(=O)(O)OC[C@H]3O[C@@H](n4cnc5c(N)ncnc54)[C@H](O)[C@@H]3O)[C@@H](O)[C@H]2O)c1 [carbaNAD]
residual activity of GlucDH-mut2 [1]: about 50% | Enzyme activity, diaphorase (diaphorase [2]; 0 weeks (start of storage)): 4.6 U/cm^2 | Enzyme activity, diaphorase (diaphorase [2]; DT (35° C.), 6 weeks): 3.4 U/cm^2 | Enzyme activity, diaphorase (diaphorase [2]; DT (35° C.), 9 weeks): 4.4 U/cm^2 | Enzyme activity, diaphorase (diaphorase [2]; DT (35° C.), 12 weeks): 4.0 U/cm^2 | Enzyme activity, diaphorase (diaphorase [2]; DT (35° C.), 18 weeks): 5.3 U/cm^2 | Enzyme activity, diaphorase (diaphorase [2]; GT (30° C.), 12 weeks): 4.3 U/cm^2 | Enzyme activity, diaphorase (diaphorase [2]; GT (30° C.), 18 weeks): 6.2 U/cm^2 | Enzyme activity, diaphorase (diaphorase [2]; HT (45° C.), 6 weeks): 3.9 U/cm^2 | Enzyme activity, diaphorase (diaphorase [2]; HT (45° C.), 9 weeks): 3.8 U/cm^2 | Enzyme activity, diaphorase (diaphorase [2]; KS (5° C.), 6 weeks): 4.4 U/cm^2 | Enzyme activity, diaphorase (diaphorase [2]; KS (5° C.), 9 weeks): 5.2 U/cm^2 | Enzyme activity, diaphorase (diaphorase [2]; KS (5° C.), 12 weeks): 4.8 U/cm^2 | Enzyme activity, diaphorase (diaphorase [2]; KS (5° C.), 18 weeks): 7.0 U/cm^2 | Enzyme activity, diaphorase (diaphorase [2]; RT (25° C.), 6 weeks): 4.5 U/cm^2 | Enzyme activity, diaphorase (diaphorase [2]; RT (25° C.), 9 weeks): 5.1 U/cm^2 | Enzyme activity, diaphorase (diaphorase [2]; RT (25° C.), 12 weeks): 4.6 U/cm^2 | Enzyme activity, diaphorase (diaphorase [2]; RT (25° C.), 18 weeks): 6.7 U/cm^2 | TM (D-lactate dehydrogenase): 59.1 °C | ΔHcal (D-lactate dehydrogenase): 19 kcal/mol | ADH activity after 2 weeks at 2-8° C. ([3]; 16 mmol/l coenzyme, 2 weeks at 2-8° C.): 100.7 % of initial value | ADH activity after 3 months at 2-8° C. ([3]; 16 mmol/l coenzyme, 3 months at 2-8° C.): 91.3 % of initial value | ADH activity after 7.5 months at 2-8° C. ([3]; 16 mmol/l coenzyme, 7.5 months at 2-8° C.): 95.6 % of initial value | ADH activity after 10 months at 2-8° C. ([3]; 16 mmol/l coenzyme, 10 months at 2-8° C.): 88.2 % of initial value | ADH activity after 12 months at 2-8° C. ([3]; 16 mmol/l coenzyme, 12 months at 2-8° C.): 83.8 % of initial value | ADH activity % of weighed amount (initial value) [3, 6]: 71.9 % of weighed amount | ADH activity U/ml (initial value) [3, 6]: 120.2 U/ml | higher residual activity of alcohol dehydrogenase compared to 0.5 mM cNAD ([3]; 2 weeks at 35° C., 15 mM cNAD): approximately 45% | higher residual activity of alcohol dehydrogenase compared to 16 mM NAD solution ([3]; 12 months at 2-8° C., 16 mM cNAD): approximately 20% | ADH activity % of weighed amount (initial value) ([3]; Sample 1, pH 7.85, 0.5 mM cNAD): 73.7 % of weighed amount | ADH activity U/ml (initial value) ([3]; Sample 1, pH 7.85, 0.5 mM cNAD): 123.1 U/ml | ADH activity after 2 weeks at 2-8° C. ([3]; Sample 1, pH 7.85, 0.5 mM cNAD): 93.8 % of initial value | ADH activity after 2 weeks at 35° C. ([3]; Sample 1, pH 7.85, 0.5 mM cNAD): 31.1 % of initial value | ADH activity % of weighed amount (initial value) ([3]; Sample 2, pH 7.85, 1 mM cNAD): 75.3 % of weighed amount | ADH activity U/ml (initial value) ([3]; Sample 2, pH 7.85, 1 mM cNAD): 125.8 U/ml | ADH activity after 2 weeks at 2-8° C. ([3]; Sample 2, pH 7.85, 1 mM cNAD): 97.7 % of initial value | ADH activity after 2 weeks at 35° C. ([3]; Sample 2, pH 7.85, 1 mM cNAD): 45.5 % of initial value | ADH activity % of weighed amount (initial value) ([3]; Sample 3, pH 7.85, 5 mM cNAD): 74.9 % of weighed amount | ADH activity U/ml (initial value) ([3]; Sample 3, pH 7.85, 5 mM cNAD): 125.1 U/ml | ADH activity after 2 weeks at 2-8° C. ([3]; Sample 3, pH 7.85, 5 mM cNAD): 101.1 % of initial value | ADH activity after 2 weeks at 35° C. ([3]; Sample 3, pH 7.85, 5 mM cNAD): 74.1 % of initial value | ADH activity % of weighed amount (initial value) ([3]; Sample 4, pH 7.85, 15 mM cNAD): 74.1 % of weighed amount | ADH activity U/ml (initial value) ([3]; Sample 4, pH 7.85, 15 mM cNAD): 123.7 U/ml | ADH activity after 2 weeks at 2-8° C. ([3]; Sample 4, pH 7.85, 15 mM cNAD): 104.0 % of initial value | ADH activity after 2 weeks at 35° C. ([3]; Sample 4, pH 7.85, 15 mM cNAD): 77.6 % of initial value | TM (malate dehydrogenase): 43.2 °C | ΔHcal (malate dehydrogenase): 340 kcal/mol | residual activity of diaphorase compared to formulation containing NAD (diaphorase [4]): considerably increased residual activity | Enzyme activity, glucose dehydrogenase ([5]; 0 weeks (start of storage)): 19.8 U/cm^2 | Enzyme activity, glucose dehydrogenase ([5]; DT (35° C.), 6 weeks): 19.8 U/cm^2 | Enzyme activity, glucose dehydrogenase ([5]; DT (35° C.), 9 weeks): 20.2 U/cm^2 | Enzyme activity, glucose dehydrogenase ([5]; DT (35° C.), 12 weeks): 17.2 U/cm^2 | Enzyme activity, glucose dehydrogenase ([5]; DT (35° C.), 18 weeks): 16.9 U/cm^2 | Enzyme activity, glucose dehydrogenase ([5]; GT (30° C.), 12 weeks): 17.6 U/cm^2 | Enzyme activity, glucose dehydrogenase ([5]; GT (30° C.), 18 weeks): 16.8 U/cm^2 | Enzyme activity, glucose dehydrogenase ([5]; HT (45° C.), 6 weeks): 19.0 U/cm^2 | Enzyme activity, glucose dehydrogenase ([5]; HT (45° C.), 9 weeks): 18.8 U/cm^2 | Enzyme activity, glucose dehydrogenase ([5]; KS (5° C.), 6 weeks): 20.4 U/cm^2 | Enzyme activity, glucose dehydrogenase ([5]; KS (5° C.), 9 weeks): 21.2 U/cm^2 | Enzyme activity, glucose dehydrogenase ([5]; KS (5° C.), 12 weeks): 18.5 U/cm^2 | Enzyme activity, glucose dehydrogenase ([5]; KS (5° C.), 18 weeks): 18.8 U/cm^2 | Enzyme activity, glucose dehydrogenase ([5]; RT (25° C.), 6 weeks): 20.7 U/cm^2 | Enzyme activity, glucose dehydrogenase ([5]; RT (25° C.), 9 weeks): 21.5 U/cm^2 | Enzyme activity, glucose dehydrogenase ([5]; RT (25° C.), 12 weeks): 18.0 U/cm^2 | Enzyme activity, glucose dehydrogenase ([5]; RT (25° C.), 18 weeks): 17.7 U/cm^2

Source: US9540702B2, “Stabilization of enzymes with stable coenzymes” (Roche Diabetes Care, Inc., priority 2009, dated 2017)
